From article PMC3734245, “Surface Display and Bioactivity of Bombyx mori Acetylcholinesterase on Pichia pastoris” (PLoS ONE, 2013) come the findings set out here.

The target of the assay is T1, displayed BmAChE (Bombyx mori, UniProt A5A2M5).
T1 construct: signal peptide and hydrophobic C-terminal tail removed; N-terminal FLAG tag; (Gly4Ser)3 linker to S. cerevisiae AGalpha1 anchor at C-terminus; bmace about 1900 bp; primers encode N-terminal RSWANH and C-terminal TGPYSS
T1 sequence (A5A2M5 entry or part of it): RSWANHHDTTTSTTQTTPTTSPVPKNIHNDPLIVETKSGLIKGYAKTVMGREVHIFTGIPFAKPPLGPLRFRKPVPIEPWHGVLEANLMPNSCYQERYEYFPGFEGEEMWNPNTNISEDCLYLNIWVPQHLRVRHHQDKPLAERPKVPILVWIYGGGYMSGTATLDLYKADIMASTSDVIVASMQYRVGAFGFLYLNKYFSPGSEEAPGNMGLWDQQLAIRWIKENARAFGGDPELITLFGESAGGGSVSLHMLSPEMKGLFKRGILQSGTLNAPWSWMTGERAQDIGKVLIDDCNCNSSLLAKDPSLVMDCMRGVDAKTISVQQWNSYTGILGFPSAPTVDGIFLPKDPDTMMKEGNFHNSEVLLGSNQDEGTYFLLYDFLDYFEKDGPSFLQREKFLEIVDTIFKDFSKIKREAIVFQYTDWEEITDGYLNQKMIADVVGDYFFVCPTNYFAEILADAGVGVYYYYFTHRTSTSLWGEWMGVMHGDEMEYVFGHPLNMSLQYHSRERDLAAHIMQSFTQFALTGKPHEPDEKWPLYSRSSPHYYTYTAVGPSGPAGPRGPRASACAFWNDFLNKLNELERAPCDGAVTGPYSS
Nature of the assay: Ellman assay, yeast cell suspension displaying the enzyme. The format is cell-based.
By IC50 is commonly meant the concentration at which inhibition is half-maximal. In turn, `CCOP(=S)(OCC)Oc1ccc([N+](=O)[O-])cc1` [parathion] yielded a concentration for half-maximal inhibition (IC50) of 1130 nM.
With `CNC(=O)Oc1ccccc1C(C)C` [isoprocarb] the figure was 11.1 nM.
Next, `CCOC(=O)CC(SP(=S)(OC)OC)C(=O)OCC` (stereo not shown) [malathion]: 1410 nM; `COP(N)(=S)Oc1ccccc1C(=O)OC(C)C` (stereo not shown) [isocarbophos]: 910 nM.
Next, `CNC(=O)ON=C(C)SC` [methomyl]: 64.1 nM.
Molecule `COP(=O)(OC)C(O)C(Cl)(Cl)Cl` (stereo not shown) [trichlorphon] registered an IC50 of 240 nM.
Next, `CCCCN(CCCC)SN(C)C(=O)Oc1cccc2c1OC(C)(C)C2` [carbosulfan]: 113 nM; `CNC(=O)Oc1cc(C)c(SC)c(C)c1` [methiocarb]: 65.8 nM.
With `CNC(=O)Oc1cccc2c1OC(C)(C)C2` [carbofuran] the figure was 1.92 nM; with `COP(=O)(OC)OC=C(Cl)Cl` [dichlorphos], 903 nM; with `CNC(=O)CSP(=S)(OC)OC` [dimethoate], 1140 nM.
Molecule `CNC(=O)Oc1ccc2c(c1)[C@]1(C)CCN(C)[C@@H]1N2C` [eserine] displayed an IC50 of 41.7 nM.
Molecule `COP(N)(=O)SC` (stereo not shown) [methamidophos] gave an IC50 of 1070 nM.
